# Results from patent US11834450B2, “Compounds having ((3-nitrophenyl)sulfonyl)acetamide as BCL-2 inhibitors” (Eil Therapeutics, Inc., priority 2021, dated 2023).
# How the values were obtained:
# BCL-2 = target: T1, BCL-2 (Homo sapiens, UniProt P10415); assay: BCL-2 TR-FRET Assay (primary PPI inhibition); type: binding; details: 60 min incubation; read-out: BCL2 (IC50 code, BCL-2 TR-FRET)
# T1 construct: purchased BPS Bioscience #50222
# BCL-XL = target: T2, BCL-XL (Homo sapiens, UniProt Q07817); assay: BCL-XL TR-FRET Assay (primary PPI inhibition); type: binding; details: 60 min incubation; read-out: BCLxL (IC50 code, BCL-XL TR-FRET)
# T2 construct: purchased BPS Bioscience #50223
# T2 sequence (Q07817 whole entry): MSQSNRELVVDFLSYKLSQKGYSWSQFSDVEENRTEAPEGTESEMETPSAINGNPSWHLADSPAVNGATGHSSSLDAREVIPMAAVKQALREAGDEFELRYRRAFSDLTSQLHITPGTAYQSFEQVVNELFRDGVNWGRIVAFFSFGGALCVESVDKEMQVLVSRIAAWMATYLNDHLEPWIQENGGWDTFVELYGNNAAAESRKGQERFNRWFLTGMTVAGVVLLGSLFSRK
# Method in brief: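 TR-FRET readout (ex 340 nm; em 620/665 nm; 60 μs delay, 500 μs integration) after a 60 min incubation. Mix: compound, 10.5 ng BCL-XL, BCL-XL peptide ligand at 1:80, plus anti-His Tb donor and dye acceptor each at 1:100.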
# RS4-11 cells = assay: Cell viability assay RS4-11 (CellTiter-Glo); type: cell-based; details: Homo sapiens, 72 h; RS4-11 cells, 3 days, CellTiter-Glo; read-out: RS4-11 (CC50 code)
# Method in brief: (§1)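 Cells were seeded at 2000/well (HEK293, in DMEM, pre-incubated a day) or 4000/well (other lines, in RPMI-1640). Serially diluted compound was added and plates incubated 3 days at 37 °C, with viability read by CellTiter-Glo luminescence.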
# MOLT-4 cells = assay: Cell viability assay MOLT-4 (CellTiter-Glo); type: cell-based; details: Homo sapiens, 72 h; MOLT-4 cells, 3 days, CellTiter-Glo; read-out: MOLT-4 (CC50 code)
# Method in brief: as §1
# [1] = Cell viability assay HEK293 (CellTiter-Glo); type: cell-based; details: human, HEK293 cells, read-out: HEK293 (CC50 code)
# Method in brief: as §1
# [2] = tested on: caspase-3 and -7 activities in RS4-11 cells; assay: Cas-3/7 activation (Caspase-Glo 3/7) in RS4-11 cells; type: cell-based; details: Homo sapiens, 3.5 h at 37° C. and 30 min at r.t., read-out: Cas-3/7 (EC50 code)
# Protocol: Assay Principle: The Caspase-Glo 3/7 Assay is homogeneous, luminescent assay that measures caspase-3 and -7 activities. The assay provides a luminogenic caspase-3/7 substrate, which contains the tetrapeptide sequence DEVD, in a reagent optimized for caspase activity.
# Assay Procedure: Incubate RS4-11 cells with varying concentrations of test compounds for 3.5 h in a humidified incubator at 37° C. and 5% CO2 and 30 min at r.t. Add 15 μl Caspase-Glo reagent to each well and incubate the plate for 30 min at r.t. Read on ClarioStar Plus instrument.
# Materials: Promega Caspase-Glo (Promega, #8212); Frozen RS4-11 cells; 384-well white plate (Corning, #3570).
# Instrumentation: ClarioStar Plus; Biomek FX for liquid handling (Beckman Coulter).
# T1 sequence (P10415 whole entry): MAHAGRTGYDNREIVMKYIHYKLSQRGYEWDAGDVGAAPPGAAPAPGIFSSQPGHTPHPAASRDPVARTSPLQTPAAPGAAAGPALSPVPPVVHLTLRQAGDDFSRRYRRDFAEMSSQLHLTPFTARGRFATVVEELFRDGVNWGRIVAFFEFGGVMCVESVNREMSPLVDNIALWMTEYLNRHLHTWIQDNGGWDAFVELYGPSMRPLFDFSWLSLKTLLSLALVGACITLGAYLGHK
SMILES,IC50 (BCL-2) [nM],IC50 (BCL-XL) [nM],CC50 (RS4-11 cells) [nM],CC50 (MOLT-4 cells) [nM],CC50 at 3 days [1] [nM],EC50 [2] [nM]
"CC(C)C(=O)N1C[C@@H](CN2CCN(c3ccc(C(=O)NS(=O)(=O)c4ccc(NCC5CCOCC5)c([N+](=O)[O-])c4)c(Oc4cnc5[nH]ccc5c4)c3)CC2)[C@H](c2ccc(Cl)cc2)C1 [Compound 58, 4-[4-[[(3R,4R)-4-(4-chlorophenyl)-1-(2-methylpropanoyl)pyrrolidin-3-yl]methyl]piperazin-1-yl]-N-[3-nitro-4-(tetrahydropyran-4-ylmethylamino)phenyl]sulfonyl-2-(1H-pyrrolo[2,3-b]pyridin-5-yloxy)benzamide]",10 to 50,> 4000,> 200,2000 to 10000,> 25000,> 250
"O=C(NS(=O)(=O)c1ccc(NCC2CCOCC2)c([N+](=O)[O-])c1)c1ccc(N2CCN(CC(c3ccccc3)c3ccccc3)CC2)cc1Oc1cnc2[nH]ccc2c1 [Compound 4, 4-[4-(2,2-diphenylethyl)piperazin-1-yl]-N-[3-nitro-4-(tetrahydropyran-4-ylmethylamino)phenyl]sulfonyl-2-(1H-pyrrolo[2,3-b]pyridin-5-yloxy)benzamide]",> 50,> 4000,> 200,2000 to 10000,> 25000,> 250
"CC(C)C(=O)N1Cc2ccc(Cl)cc2C[C@H]1CN1CCN(c2ccc(C(=O)NS(=O)(=O)c3ccc(NCC4CCOCC4)c([N+](=O)[O-])c3)c(Oc3cnc4[nH]ccc4c3)c2)CC1 [Compound 40, 4-[4-[[(3S)-6-chloro-2-(2-methylpropanoyl)-3,4-dihydro-1H-isoquinolin-3-yl]methyl]piperazin-1-yl]-N-[3-nitro-4-(tetrahydropyran-4-ylmethylamino)phenyl]sulfonyl-2-(1H-pyrrolo[2,3-b]pyridin-5-yloxy)benzamide]",> 50,> 4000,> 200,2000 to 10000,10000 to 25000,> 250
"CC(C)C(=O)N1Cc2cc(Cl)ccc2C[C@H]1CN1CCN(c2ccc(C(=O)NS(=O)(=O)c3ccc(NCC4CCOCC4)c([N+](=O)[O-])c3)c(Oc3cnc4[nH]ccc4c3)c2)CC1 [Compound 57, 4-[4-[[(3S)-7-chloro-2-(2-methylpropanoyl)-3,4-dihydro-1H-isoquinolin-3-yl]methyl]piperazin-1-yl]-N-[3-nitro-4-(tetrahydropyran-4-ylmethylamino)phenyl]sulfonyl-2-(1H-pyrrolo[2,3-b]pyridin-5-yloxy)benzamide]",> 50,> 4000,> 200,2000 to 10000,10000 to 25000,> 250
"O=C(NS(=O)(=O)c1ccc(NCC2CCOCC2)c([N+](=O)[O-])c1)c1ccc(N2CCN(C[C@@H]3Cc4ccccc4CN3C(=O)c3ccsc3)CC2)cc1Oc1cnc2[nH]ccc2c1 [Compound 36, N-[3-nitro-4-(tetrahydropyran-4-ylmethylamino)phenyl]sulfonyl-2 (1H-pyrrolo[2,3-b]pyridin-5-yloxy)-4-[4-[[(3S)-2-(thiophene-3 carbonyl)-3,4-dihydro-1H-isoquinolin-3-yl]methyl]piperazin 1-yl]benzamide]",> 50,> 4000,> 200,2000 to 10000,10000 to 25000,> 250
"O=C(NS(=O)(=O)c1ccc(NCC2CCOCC2)c([N+](=O)[O-])c1)c1ccc(N2CCC(CN3Cc4ccccc4CC3c3ccccc3)CC2)cc1Oc1cnc2[nH]ccc2c1 (stereo not drawn) [Compound 41, N-[3-nitro-4-(tetrahydropyran-4-ylmethylamino)phenyl]sulfonyl-4-[4-[(3-phenyl-3,4-dihydro-1H-isoquinolin-2-yl)methyl]-1-piperidyl]-2-(1H-pyrrolo[2,3-b]pyridin-5-yloxy)benzamide]",> 50,> 4000,> 200,2000 to 10000,> 25000,> 250
"CC1(O)CC[C@H](CN2CCN(c3ccc(C(=O)NS(=O)(=O)c4ccc(NCC5CCOCC5)c([N+](=O)[O-])c4)c(Oc4cnc5[nH]ccc5c4)c3)CC2)[C@@H](c2ccc(Cl)cc2)C1 (stereo partly drawn) [Compound 28, 4-[4-[[(1S,2S)-2-(4-chlorophenyl)-4-hydroxy-4-methyl-cyclohexyl]methyl]piperazin-1-yl]-N-[3-nitro-4-(tetrahydropyran-4-ylmethylamino)phenyl]sulfonyl-2-(1H-pyrrolo[2,3-b]pyridin-5-yloxy)benzamide]",< 5,≤ 2000,100 to 200,2000 to 10000,> 25000,100 to 250
"O=C(NS(=O)(=O)c1ccc(NCC2CCOCC2)c([N+](=O)[O-])c1)c1ccc(N2CCN(CC3Cc4ccc(Cl)cc4CN3C(=O)C3CC3)CC2)cc1Oc1cnc2[nH]ccc2c1 (stereo not drawn) [Compound 20, 4-[4-[[7-chloro-2-(cyclopropanecarbonyl)-3,4-dihydro-1H-isoquinolin-3-yl]methyl]piperazin-1-yl]-N-[3-nitro-4-(tetrahydropyran-4-ylmethylamino)phenyl]sulfonyl-2-(1H-pyrrolo[2,3-b]pyridin-5-yloxy)benzamide]",> 50,> 4000,> 200,2000 to 10000,> 25000,> 250
"O=C(NS(=O)(=O)c1ccc(NCC2CCOCC2)c([N+](=O)[O-])c1)c1ccc(N2CCN(CC3Cc4cc(Cl)ccc4CN3C(=O)C3CC3)CC2)cc1Oc1cnc2[nH]ccc2c1 (stereo not drawn) [Compound 22, 4-[4-[[6-chloro-2-(cyclopropanecarbonyl)-3,4-dihydro-1H-isoquinolin-3-yl]methyl]piperazin-1-yl]-N-[3-nitro-4-(tetrahydropyran-4-ylmethylamino)phenyl]sulfonyl-2-(1H-pyrrolo[2,3-b]pyridin-5-yloxy)benzamide]",> 50,> 4000,> 200,2000 to 10000,> 25000,> 250
"CN1C(=O)CC[C@H](CN2CCN(c3ccc(C(=O)NS(=O)(=O)c4ccc(NCC5CCOCC5)c([N+](=O)[O-])c4)c(Oc4cnc5[nH]ccc5c4)c3)CC2)[C@H]1c1ccc(Cl)cc1 [Compound 72, 4-[4-[[(2S,3R)-2-(4-chlorophenyl)-1-methyl-6-oxo-3-piperidyl]methyl]piperazin-1-yl]-N-[3-nitro-4-(tetrahydropyran-4-ylmethylamino)phenyl]sulfonyl-2-(1H-pyrrolo[2,3-b]pyridin-5-yloxy)benzamide]",> 50,≤ 2000,> 200,> 10000,> 25000,> 250
"O=C(NS(=O)(=O)c1ccc(NCC2CCOCC2)c([N+](=O)[O-])c1)c1ccc(N2CCN(CC(O)(c3ccccc3)c3ccc(F)c(F)c3)CC2)cc1Oc1cnc2[nH]ccc2c1 (stereo not drawn) [Compound 11, 4-[4-[2-(3,4-difluorophenyl)-2-hydroxy-2-phenyl-ethyl]piperazin-1-yl]-N-[3-nitro-4-(tetrahydropyran-4-ylmethylamino)phenyl]sulfonyl-2-(1H-pyrrolo[2,3-b]pyridin-5-yloxy)benzamide]",> 50,> 4000,> 200,2000 to 10000,> 25000,> 250
"CC1=C(C)C[C@H](c2ccc(Cl)cc2)[C@@H](CN2CCN(c3ccc(C(=O)NS(=O)(=O)c4ccc(NCC5CCOCC5)c([N+](=O)[O-])c4)c(Oc4cnc5[nH]ccc5c4)c3)CC2)C1 [Compound 75, 4-[4-[[(1S,6S)-6-(4-chlorophenyl)-3,4-dimethyl-cyclohex-3-en-1-yl]methyl]piperazin-1-yl]-N-[3-nitro-4-(tetrahydropyran-4-ylmethylamino)phenyl]sulfonyl-2-(1H-pyrrolo[2,3-b]pyridin-5-yloxy)benzamide]",> 50,≤ 2000,> 200,2000 to 10000,> 25000,> 250
"O=C(NS(=O)(=O)c1ccc(NCC2CCOCC2)c([N+](=O)[O-])c1)c1ccc(N2CCN(CC(c3ccccc3)c3ccc(F)c(F)c3)CC2)cc1Oc1cnc2[nH]ccc2c1 (stereo not drawn) [Compound 13, 4-[4-[2-(3,4-difluorophenyl)-2-phenyl-ethyl]piperazin-1-yl]-N-[3 nitro-4-(tetrahydropyran-4-ylmethylamino)phenyl]sulfonyl-2 (1H-pyrrolo[2,3-b]pyridin-5-yloxy)benzamide]",> 50,> 4000,> 200,< 2000,≤ 10000,> 250
